According to patent US10553890B2, “Aqueous redox flow batteries” (UCHICAGO ARGONNE, LLC, priority 2017, dated 2020):
“Also recorded” adds a separate entry of the source.

What was measured:
Format in all cases: physicochemical
[1] = Solubility in aqueous acid; conditions: aqueous acid / acidic conditions
[2] = Cyclic voltammetry (three-electrode cell, glassy carbon working electrode, Ag/AgCl reference); conditions: for redox stability (irreversible side reactions): 5 mV/s, cycling 0 V up to about 1.2 V; for oxidation potential: glassy carbon; for observed oxidation potential: 1 mM in 0.5 M sulfuric acid, scan rate 20 mV/s, 0 V to 1 V
Method: Cyclic voltammetry (CV) measurements: CV experiments were performed in custom-made three-electrode electrochemical cells with 3 mm diameter glassy carbon working electrode, a Ag/AgCl reference electrode and a platinum wire counter electrode using 1470E SOLARTRON ANALYTICAL INSTRUMENT.

[3] = Diffusion coefficient measurement using Randle-Sevcik equation; conditions: scan rates 10-100 mV/s
Method: Diffusion coefficient measurement: Diffusion coefficients were measured using Randle-Sevcik equation as shown below. In this equation, ip is the peak current, n represents the number of electrons transferred in the redox reaction, F is the Faraday's constant, A is the electrode area, c represents the concentration, v is the scan rate, D is the diffusion coefficient, R is the gas constant and T is the absolute temperature.

[4] = Galvanostatic bulk electrolysis cycling; conditions: 1 mM in 3.0 M sulfuric acid, constant current 2.68 mA, cut-off 0.25 V to 0.85 V
Method: Galvanostatic bulk electrolysis: Galvanostatic cycling test was performed with a three-electrode bulk electrolysis electrochemical cell using 1470E SOLARTRON ANALYTICAL INSTRUMENT. Reticulated vitreous carbon was used as the working electrode, Ag/AgCl electrode was used as the reference electrode and coiled platinum enclosed in glass tubes with porous ceramic frit was used as the counter electrode.

[5] = 5 mM in 1.0 M sulfuric acid, scan rate 5 mV/s

capacity and capacity retention [4] | observed oxidation potential [2] | SMILES | redox stability (irreversible side reactions) ([2]; 5 mM in 1.0 M sulfuric acid) | oxidation potential [2, 5] | other results
very similar | 0.56 V (vs. AG/AgCl) | CN(C)c1ccc(O)cc1 [DMAP, 4-dimethylaminophenol] | – | – | diffusion coefficient ([3]; 1 mM in 0.5 M sulfuric acid): 3.9×10^−6 cm^2/s
very similar | 0.66 V (vs. AG/AgCl) | CN(C)c1cc(S(=O)(=O)O)c(O)c(S(=O)(=O)O)c1 [DADPS, 5-(dimethylamino)-2-hydroxybenzene-1,3-disulfonic acid] | – | – | potential in bulk electrolysis relative to unsubstituted aminophenol (DMAP) [4]: increased potential

Continued, compound first:

SMILES | capacity and capacity retention [4] | observed oxidation potential [2] | redox stability (irreversible side reactions) ([2]; 5 mM in 1.0 M sulfuric acid) | oxidation potential [2, 5] | other results
CC1(C)CC(N)CC(C)(C)N1[O] [4-NH2-TEMPO, 4-amino-2,2,6,6-tetramethylpiperidyl-1-oxyl] | – | – | irreversible reduction; also recorded: greater redox stability (i.e., less severe irreversible side reactions) than 4-OH-TEMPO | 0.92 V (vs. AG/AgCl) | solubility [1]: higher solubility than 4-OH-TEMPO; oxidation potential higher than 4-OH-TEMPO [2, 5]: 0.09 V
NCCc1ccc(O)c(O)c1 [dopamine, 3,4-dihydroxyphenethylamine, reference compound] | – | – | – | – | diffusion coefficient ([3]; 50 mM in 0.5 M sulfuric acid): 2.43×10^−6 cm^2/s
CC1(C)CC(O)CC(C)(C)N1[O] [4-OH-TEMPO, reference compound] | – | – | irreversible reduction | 0.83 V (vs. AG/AgCl) | –
